{"source": "patent EP1209147A1", "about": "“CARBOXYLIC ACID DERIVATIVES AND ADHESION MOLECULE INHIBITORS CONTAINING THE SAME AS THE ACTIVE INGREDIENT” (TORAY INDUSTRIES, INC., priority 1999, dated 2001)", "key": {"[1]": {"target": "VLA-4-IgG chimeric protein (Homo sapiens, UniProt P05556+P13612)", "sequence (P13612 with tags, fused parts or gaps limits assumed)": "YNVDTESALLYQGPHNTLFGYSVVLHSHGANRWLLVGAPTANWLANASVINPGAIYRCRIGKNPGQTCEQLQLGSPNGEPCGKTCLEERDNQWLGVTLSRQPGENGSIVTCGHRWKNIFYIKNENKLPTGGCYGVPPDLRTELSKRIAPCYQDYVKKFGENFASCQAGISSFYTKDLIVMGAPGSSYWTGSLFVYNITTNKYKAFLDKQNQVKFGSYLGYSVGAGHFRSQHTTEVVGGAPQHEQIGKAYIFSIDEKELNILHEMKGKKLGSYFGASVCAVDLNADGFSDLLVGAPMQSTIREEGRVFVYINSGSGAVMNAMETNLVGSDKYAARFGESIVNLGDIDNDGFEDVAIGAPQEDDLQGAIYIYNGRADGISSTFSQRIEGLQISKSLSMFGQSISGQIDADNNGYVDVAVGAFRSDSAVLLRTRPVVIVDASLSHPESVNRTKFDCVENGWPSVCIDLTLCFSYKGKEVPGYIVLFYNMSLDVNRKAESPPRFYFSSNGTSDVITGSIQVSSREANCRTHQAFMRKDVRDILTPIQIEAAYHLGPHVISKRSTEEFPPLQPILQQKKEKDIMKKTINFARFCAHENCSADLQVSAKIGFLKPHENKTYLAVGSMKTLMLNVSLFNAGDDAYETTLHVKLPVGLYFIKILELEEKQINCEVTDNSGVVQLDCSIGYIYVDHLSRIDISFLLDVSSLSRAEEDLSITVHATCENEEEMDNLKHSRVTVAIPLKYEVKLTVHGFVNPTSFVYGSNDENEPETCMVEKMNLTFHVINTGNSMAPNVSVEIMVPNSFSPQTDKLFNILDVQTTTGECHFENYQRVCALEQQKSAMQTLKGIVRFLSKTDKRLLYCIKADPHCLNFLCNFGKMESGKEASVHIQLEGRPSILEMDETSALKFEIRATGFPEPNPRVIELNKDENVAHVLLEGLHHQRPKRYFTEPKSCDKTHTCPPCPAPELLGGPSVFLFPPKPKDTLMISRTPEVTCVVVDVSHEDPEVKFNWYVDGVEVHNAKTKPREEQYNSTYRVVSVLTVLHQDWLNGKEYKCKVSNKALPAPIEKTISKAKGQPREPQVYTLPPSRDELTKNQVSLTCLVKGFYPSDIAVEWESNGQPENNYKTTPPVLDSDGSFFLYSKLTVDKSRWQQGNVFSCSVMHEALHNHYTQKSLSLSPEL", "sequence (P05556 with tags, fused parts or gaps limits assumed)": "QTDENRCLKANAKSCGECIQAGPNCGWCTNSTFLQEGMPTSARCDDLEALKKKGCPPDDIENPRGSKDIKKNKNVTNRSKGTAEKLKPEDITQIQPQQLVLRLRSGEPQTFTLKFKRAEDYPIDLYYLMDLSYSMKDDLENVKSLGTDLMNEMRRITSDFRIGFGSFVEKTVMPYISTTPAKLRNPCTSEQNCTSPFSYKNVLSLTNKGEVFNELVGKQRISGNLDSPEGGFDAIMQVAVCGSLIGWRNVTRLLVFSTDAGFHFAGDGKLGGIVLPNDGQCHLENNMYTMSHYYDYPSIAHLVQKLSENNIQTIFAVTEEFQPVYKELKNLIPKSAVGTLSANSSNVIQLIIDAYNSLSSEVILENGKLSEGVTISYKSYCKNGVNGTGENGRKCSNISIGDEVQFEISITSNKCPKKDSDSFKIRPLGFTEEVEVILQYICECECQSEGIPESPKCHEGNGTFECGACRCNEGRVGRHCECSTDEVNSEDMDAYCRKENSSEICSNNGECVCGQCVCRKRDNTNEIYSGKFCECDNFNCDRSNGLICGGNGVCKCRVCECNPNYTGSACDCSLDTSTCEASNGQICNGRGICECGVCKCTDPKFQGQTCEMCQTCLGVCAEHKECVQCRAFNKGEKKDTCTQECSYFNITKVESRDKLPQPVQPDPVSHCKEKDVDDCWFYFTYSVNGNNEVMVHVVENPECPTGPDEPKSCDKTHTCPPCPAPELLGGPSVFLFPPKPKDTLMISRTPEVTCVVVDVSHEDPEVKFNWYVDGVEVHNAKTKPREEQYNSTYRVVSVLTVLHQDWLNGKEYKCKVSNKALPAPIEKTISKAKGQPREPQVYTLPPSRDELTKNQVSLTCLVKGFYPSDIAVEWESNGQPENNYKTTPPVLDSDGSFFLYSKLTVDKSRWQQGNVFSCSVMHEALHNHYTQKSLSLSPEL", "assay": "Inhibition of binding between CS-1 peptide and VLA-4-IgG chimeric protein", "conditions": "binding of VLA-4-IgG chimeric protein to immobilized CS-1 peptide; compound preincubated 20 minutes; read-out: Inhibition Activity(IC50 : nM)", "procedure": "The adhesion-inhibition activity of the compound of the present invention against VLA-4 may be examined by using an adhesion assay system in which the adhesion between VLA-4-expressing cells such as Ramos cells and Jurkat cells, and fibronectin or a fragment thereof, e.g., a peptide containing CS-1 sequence (Gly Pro Glu Ile Leu Asp Val Pro Ser Thr) (hereinafter referred to as \"CS-1 peptide\") immobilized on an immunoplate is measured. Alternatively, a binding assay system in which the binding of the VLA-4 protein to the fibronectin or a fragment thereof such as CS-1 peptide immobilized on an immunoplate is measured may be employed. In the present invention, the inhibition assay of the compound is preferably measured by a binding assay system which measures the binding between a chimeric protein of VLA-4 and immunoglobulin (VLA-4-IgG chimeric protein) and CS-1 peptide (Japanese patent application No. H9-234544), although the method of measuring the inhibition activity is not restricted to this method. The term \"VLA-4-IgG chimeric protein\" herein means the heterodimer composite molecule in which a chimeric protein between α4 of VLA-4 and immunoglobulin (hereinafter referred to as \"VLAα4·IgG chimeric protein), and a chimeric protein between β1 of VLA-4 and immunoglobulin (hereinafter referred to as \"VLAβ1·IgG chimeric protein) are associated. As the immunoglobulin, although heavy chain or light chain of IgG, IgM or the like may be employed, in the present invention, IgG1 heavy chain is used. When testing the inhibition activity of the compound, it is preferred to preliminarily mix the VLA-4-IgG chimeric protein and the test compound.\nEffects of Compounds for Inhibition of Binding Between CS-1 Peptide and VLA-4-IgG\nA conjugate between a peptide (Gys Leu His Gly Pro Glu Ile Leu Asp Val Pro Ser Thr) containing CS-1 sequence and rabbit IgG (Sigma) was prepared by the reported method (Humphries, M.J. et al. J. Biol.Chem., 262, 6886-6892 (1987)). The obtained conjugate was diluted with phosphate buffer (hereinafter referred to as \"PBS(-)\", NISSUI) and the resulting solution was placed in wells of a 96-well immunoplate (NUNC) in an amount of 100 µl/well, followed by leaving the solution to stand at 4°C for 16 hours to immobilize the conjugate.\nThen each well was washed twice with PBS(-), and a PBS solution containing 1% BSA heat-treated at 80°C for 10 minutes was placed in each well in an amount of 300 µl/well. The immunoplate was left to stand at 4°C for 3 hours, and then the solution in each well was removed by aspiration.\nAfter preliminarily allowing each compound to react with VLA-4-IgG chimeric protein (100 µl) at room temperature for 20 minutes, the resulting solution was allowed to react with CS-1 peptide in each well at 30°C for 3 hours. Thereafter, non-bound VLA-4-IgG chimeric protein was removed by aspiration and each well was washed twice with 0.1% BSA-containing TBS buffer (150 mM NaCl,25 mM Tris-HCI, 1 mM MnCl2 pH 7.4). To the bound VLA-4-IgG chimeric protein, biotin-labeled anti-human IgG antibody (Vector) as an primary antibody was added, and then avidin-labeled horse radish peroxidase (Sigma) as a secondary antibody was added, and the reaction was allowed to occur. After the reaction, o-phenylenediamine as a substrate was added to color the solution, and the absorbance at 490 nm was measured. From the absorbance, the binding-inhibition activity of each test compound was determined."}, "Mouse Asthma Model": {"system": "Mouse Asthma Model", "assay": "Mouse asthma model (OVA, intranasal induction)", "format": "in vivo, BLAB/c mouse", "conditions": "750 µg per time intranasally; BALF on DAY-28; Fig. 2", "procedure": "Equivolume of 10% KAI(SO4)2·12H2O (WAKO) solution and ovalbumin (hereinafter \"OVA\") solution (500 µg/ml) were mixed, and 10N NaOH was slowly added to neutralize the solution to obtain Al(OH)3 gel (OVA 500 µg/ml) on which OVA was adsorbed. The obtained product was intraperitoneally administered to each BLAB/c mouse (female, 7 weeks old, JAPAN CHARLES RIVER) at a dose of 200 µl (100 µg) per mouse on DAY-0 and DAY-14. Thereafter, on DAY-14, 50 µl of 2 mg/ml solution of OVA in physiological saline was intranasally administered, and on DAY-25, 26 and 27, 50 µl of 1 mg/ml solution of OVA in physiologically saline was intranasally administered to induce inflammation. Compound No. 140 used as the test compound was dissolved in physiological saline and the solution was intranasally administered at 30 minutes before induction with OVA, at 8 hours after induction, and on DAY-25, 26 and 27, twice a day, at a dose of 750 µg per time. To the background group and control group, physiological saline was intranasally administered.\nOn DAY-28, bronchus of each mouse was incised and the bronchus and alveoli were washed (BAL) 4 times with 0.7 ml of physiological saline. […] After staining the specimen by May-Giemsa staining method, the leukocytes were grouped and counted under microscope to determine the number of eosinophils. […]"}}, "data": [{"smiles": "CC(C)(C)CC(=O)N[C@@H](CSSC[C@H](NC(=O)CC(C)(C)C)C(=O)O)C(=O)O", "note": "[Example 140, 3-((2(R)-carboxy-2(R)-(3,3-dimethylbutanoylamino)ethyl)disulfanyl)-2(R)-(3,3-dimethylbutanoylamino)propionic acid]", "values": [{"measurement": "IC50", "setting": "[1]", "result": 1800, "unit": "nM"}, {"measurement": "accumulation of leukocytes, especially eosinophils, in the lung", "setting": "Mouse Asthma Model", "result": "inhibits"}]}]}
